{
  "source": "patent US9980972B2",
  "about": "“Rho kinase inhibitors for use in treating familial amyotrophic lateral sclerosis” (GEORG-AUGUST-UNIVERSITÄT GÖTTINGEN STIFTUNG ÖFFENTLICHEN …, priority 2012, dated 2018)",
  "experiment": "CSF analysis after sub-occipital cistern magna puncture",
  "type": "in vivo, mouse",
  "conditions": "oral via drinking water; data not shown",
  "experimental": "To reach sufficient CSF levels of Fasudil the inventors administered Fasudil (LC Labs, Woburn, USA; product number F-4660) at a low concentration of […] (Fas30) or at a high concentration of 50 mg (Fas100) in 100 ml drinking water. Control groups received the respective amount of isotonic drinking water termed as vehicle (Veh).",
  "data": [
    {"smiles": "O=S(=O)(c1cccc2cnccc12)N1CCCNCC1", "note": "[Fasudil, 1-(5-isoquinolinesulfonyl)homopiperazine]", "values": [
      {"measurement": "blood-brain-barrier crossing (CSF analysis)", "result": "readily crossed the blood-brain-barrier"}
    ]}
  ]
}
